In patent US20120135089A1, “E3 LIGASE INHIBITORS” (priority 2009, published 2012):

Legend:
[1] = system: Mdm2; assay: Western blot of Mdm2 in MEFs; format: cell-based, mouse; details: 5 μg/ml (14 μM), 6 hours
Experimental: MEFs were treated with 5 μg/ml (14 μM) of MEL23 for 6 hours. Cells were lysed and analyzed by Western blotting using anti-Mdm2 and anti-eIF4E antibodies. NT indicates a no treatment control.
Cells were seeded and treated with the indicated compound(s). Cells were lysed after each time point in a buffer of 50 mM TrisHCl pH 7.5, 200 mM NaCl, 0.5% NP-40, and 1 complete mini EDTA-free protease inhibitor cocktail tablet per 10 mL of buffer (Roche, Cat. No. 8360170). Protein content was quantified using a Biorad protein assay reagent (Bio-Rad Laboratories, Hercules, Calif., Cat. No. 500-0006). SDS sample buffer was added to the samples, and the mixture was boiled for 5 minutes. Equal amounts of protein were resolved on a 1D SDS-PAGE gel. Following separation proteins were transferred to nitrocellulose membrane, blocked with 5% milk, and then incubated with primary antibody overnight at 4° C. The membrane was incubated with secondary-HRP antibody for 45 minutes at room temperature and developed with SuperSignal West Pico Substrate (Pierce, Rockford, Ill., Cat. No. 34080).

[2] = system: p53 ubiquitination; assay: cell-based p53 ubiquitination assay in H1299 cells; design: species or system human; details: H1299 transfected with p53, Mdm2, ubiquitin; 10 μg/ml pre-treatment, 10 μM MG132
Experimental: To obtain the results shown in FIG. 4A, Mdm2-luciferase cells were transfected with ubiquitin-HA and treated 8 hours later with 10 μg/ml (28 μM) MEL23, 10 μg/ml (31 μM) MEL24, or a DMSO control. After 16 hours, cells were additionally treated with 10 μM MG132 or a DMSO control. After 3 hours, cells were lysed and immunoprecipitated for 3 hours with anti-HA affinity matrix. Total lysates and immunoprecipitated samples were analyzed by Western blotting using anti-Mdm2 antibody. NT indicates a no treatment control. […] After 8 hours, cells were treated with 10 μg/ml (28 μM) MEL23, 10 μg/ml (31 μM) MEL24, or a DMSO control. After 16 hours, cells were additionally treated with 10 μM MG132 or a DMSO control. After 3 hours cells were lysed and analyzed by Western blotting using anti-p53 antibody. “p53-Ub” indicates the slower migrating species of the protein that are the ubiquitin-conjugated forms.
To test the effects of the MEL compounds on p53 ubiquitination, H1299 cells were transfected with plasmids expressing p53, Mdm2, and ubiquitin and pre-treated with 10 μg/ml MEL23 or MEL24, followed by treatment with 10 μM MG132. Ubiquitination of p53 was analyzed by Western blotting. […] In fact, the half-life of p53 increased from an hour to greater than 6 hours with 5 μg/ml MEL23 treatment (FIG. 32). Thus, treatment with MEL23 and MEL24 inhibits ubiquitin conjugation to Mdm2 and p53.

[3] = molecular target: T1, Roc1/Cul1 E3 RING domain ligase (Homo sapiens, UniProt P62877+Q13616); assay: in vitro Roc1/Cul1 E3 ligase ubiquitination assay; format: biochemical
T1 construct: gift from Zhen-Qiang Pan, Mount Sinai School of Medicine
T1 sequence (P62877 whole entry, the tested form may be a part): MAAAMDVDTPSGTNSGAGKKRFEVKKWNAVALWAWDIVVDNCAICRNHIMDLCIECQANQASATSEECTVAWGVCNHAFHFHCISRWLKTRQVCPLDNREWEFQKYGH
T1 sequence (Q13616 whole entry, the tested form may be a part): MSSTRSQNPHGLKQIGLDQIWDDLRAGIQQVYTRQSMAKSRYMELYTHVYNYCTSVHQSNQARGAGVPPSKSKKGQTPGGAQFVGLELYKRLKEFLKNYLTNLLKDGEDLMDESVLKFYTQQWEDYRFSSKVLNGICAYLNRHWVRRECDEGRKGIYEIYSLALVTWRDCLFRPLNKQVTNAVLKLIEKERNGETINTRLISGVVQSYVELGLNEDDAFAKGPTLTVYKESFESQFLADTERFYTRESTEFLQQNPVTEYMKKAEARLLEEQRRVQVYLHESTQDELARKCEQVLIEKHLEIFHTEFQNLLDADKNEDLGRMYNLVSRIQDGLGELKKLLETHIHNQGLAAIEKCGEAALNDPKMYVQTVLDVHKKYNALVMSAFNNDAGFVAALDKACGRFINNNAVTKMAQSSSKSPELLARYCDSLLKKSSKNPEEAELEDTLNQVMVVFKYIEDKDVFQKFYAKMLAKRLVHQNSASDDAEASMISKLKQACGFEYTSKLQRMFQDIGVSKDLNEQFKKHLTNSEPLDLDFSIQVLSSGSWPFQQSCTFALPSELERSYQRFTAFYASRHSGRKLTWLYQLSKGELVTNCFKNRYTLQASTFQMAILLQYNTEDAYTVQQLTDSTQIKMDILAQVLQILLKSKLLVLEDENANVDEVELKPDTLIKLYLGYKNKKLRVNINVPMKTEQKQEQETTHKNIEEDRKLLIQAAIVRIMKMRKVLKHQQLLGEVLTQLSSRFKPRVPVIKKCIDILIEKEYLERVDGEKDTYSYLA
Experimental: These assays were performed with 100 ng of full-length Flag-Mdm2 or 200 ng of Flag-Mdm2/HA-MdmX complexes (100 ng of each protein as each are present in a 1:1 ratio, when purified), ^32P-labeled ubiquitin, UbCH5c, and E1. Following a 30-minute incubation at 37° C., reactions were terminated and resolved on a SDS-PAGE gel followed by autoradiography. PC indicates positive control, and NC indicates negative control with UbCH5C eliminated from the reaction. The gels were quantified by phosphoimaging using ImageQuant software (GE Healthcare Bio-Sciences Corp., Piscataway, N.J.). […] Reactions were performed as in FIG. 11A except 500 ng GST-Mdm2 (residues 400-491) and GST-MdmX (residues 400-490) were used for ubiquitin polymerization. […] Reactions were performed as in FIG. 11A except with 3 μg of the Roc1/Cul1 ligase complex. Ubiquitination activity of the complex was tested in the presence of increasing concentrations of MEL23 and MEL24.
Ubiquitination assays in the presence of increasing concentrations of MEL compounds were performed with 1.5 μg of the Roc1-Cul1 ligase complex, ^32P-labeled ubiquitin, UbCH5c, and E1. Following 30 min incubation at 37° C., reactions were terminated and resolved on a SDS-PAGE gel (FIG. 31A) followed by autoradiography and quantitation (FIG. 31B). […]

CCCCn1c(=O)[nH]c(O)c(C2NCCc3c2[nH]c2ccccc32)c1=O (centres unmarked) [MEL23]
Mdm2 level in MEFs [1]: increased Mdm2 in MEFs
p53 ubiquitination in cells [2]: eliminated by pre-treatment
Roc1/Cul1 E3 ligase activity in vitro [3]: no inhibition

Cn1c(O)c(C2NCCc3c2[nH]c2ccccc32)c(=O)n(C)c1=O (centres unmarked) [MEL24]
p53 ubiquitination in cells [2]: eliminated by pre-treatment
Roc1/Cul1 E3 ligase activity in vitro [3]: no inhibition
